Experiments:
Type in all cases: in vivo
Spodoptera litura = experiment: Effect on Spodoptera litura, sprayed Chinese cabbage leaves, death rate; conditions: third-instar larvae, 48 hours
Method: An emulsion was prepared from each of the present compounds listed below, in the same manner as that of Preparation Example 2. The obtained emulsion was diluted with water so that the concentration of the present compound would be 50 ppm, 5 ppm or 0.5 ppm to obtain diluted aqueous emulsions.
The diluted aqueous emulsions were sprayed on leaves of Chinese cabbages of a 3-4 leave stage. After drying with air, the leaves were placed in a plastic vessel having a size of 21 cm×13 cm×3 cm (depth). Ten third-instar larvae of Spodoptera litura were released in the vessel. The vessel was closed and placed in a room kept at a constant temperature of 26. 48 hours after, the numbers of surviving and dead ones were counted, and the death rate was calculated.

Plutella xylostella = experiment: Effect on Plutella xylostella, sprayed Chinese cabbage leaves, death rate; conditions: third-instar larvae, 48 hours
Method: Emulsions of varied concentrations prepared in the same manner as that of the above Biological Test Example 1 were sprayed on leaves of Chinese cabbages of a 3-4 leave stage. After drying with air, the leaves were placed in a plastic vessel having a size of 9 cm (inside diameter)×6.5 cm (depth). Ten third-instar larvae of Plutella xylostella were released in the vessel. The vessel was closed and placed in a room kept at a constant temperature of 26. 48 hours after, the numbers of surviving and dead ones were counted, and the death rate was calculated. The results are shown in following Table 7 together with those obtained with comparative compounds.

Mamestra brassicae = experiment: Effect on Mamestra brassicae, insecticidal activity as in Biological Test Example 1
[1] = Peroral acute toxicity for mouse; conditions: 300 mg/kg peroral, male ICR mice, 7 days observation
Method: Each of the present compounds was suspended in a 0.5% aqueous carboxymethylcellulose solution to obtain a suspension of a predetermined concentration. Male SIc:ICR mice (SPF) of 6 weeks old (body weight: 29.5 to 34.4 g) were fasted for 3 hours. 1 ml, per 100 g of the body weight, of the suspension was forcibly fed into the stomach of each mouse. Then, a food and water were given to the mice and they were bred in a cage. The observation period after the administration was 7 days. During that period, the life and death, general conditions and change in body weight of the mice were observed. Thereafter, pathologico-anatomic experiments were carried out (two mice in each group).

| Compound | death rate (Spodoptera litura; 0.5 ppm) [%] | death rate (Spodoptera litura; 5 ppm) [%] | death rate (Spodoptera litura; 50 ppm) [%] | death rate (Plutella xylostella; 0.5 ppm) | death rate (Plutella xylostella; 5 ppm) | death rate (Plutella xylostella; 50 ppm) | insecticidal activity (death rate) (Mamestra brassicae; 1.25 ppm) [%] | insecticidal activity (death rate) (Mamestra brassicae; 2.5 ppm) [%] | insecticidal activity (death rate) (Mamestra brassicae; 50 ppm) [%] | life and death, general conditions [1] |
| --- | --- | --- | --- | --- | --- | --- | --- | --- | --- | --- |
| 4-[(4-chlorophenyl)-(ethylaminoxalyl-hydrazono)-methyl]phenyl trifuoromethanesulfonate [Compound 1-5] | 100 | 100 | 100 | 0 | 100 | 100 | 89 | 100 | 100 | Neither death nor abnormality of the general conditions was recognized |
| O=C(NN=C(c1ccc(Br)cc1)c1ccc(OS(=O)(=O)C(F)(F)F)cc1)C(=O)NC1CC1 [Compound 1-555] | 40 | 100 | 100 | – | – | – | – | – | – | – |
| CCNC(=O)C(=O)NN=C(c1ccc(Cl)cc1)c1ccc(CSC(F)(F)F)cc1 [Compound 2-6] | 50 | 100 | 100 | – | – | – | – | – | – | – |
| CCCNC(=O)C(=O)NN=C(c1ccc(Cl)cc1)c1ccc(OS(=O)(=O)C(F)(F)F)cc1 [Compound 1-7] | 70 | 100 | 100 | – | – | – | 50 | 70 | 100 | – |
| CNC(=O)C(=O)NN=C(c1ccc(Br)cc1)c1ccc(OS(=O)(=O)C(F)(F)F)cc1 [Compound 1-515] | 75 | 100 | 100 | – | – | – | 60 | 80 | 100 | – |
| CCNC(=O)C(=O)NN=C(c1ccc(Br)cc1)c1ccc(OS(=O)(=O)C(F)(F)F)cc1 [Compound 1-517] | 60 | 100 | 100 | – | – | – | 100 | 100 | 100 | – |
| C#CCNC(=O)C(=O)NN=C(c1ccc(Cl)cc1)c1ccc(OS(=O)(=O)C(F)(F)F)cc1 [Compound 1-37] | 60 | 100 | 100 | – | – | – | 70 | 100 | 100 | – |
| CNC(=O)C(=O)N(C)N=C(c1ccc(Cl)cc1)c1ccc(OS(=O)(=O)C(F)(F)F)cc1 [Compound 1-178] | 30 | 100 | 100 | – | – | – | – | – | – | – |
| O=C(NN=C(c1ccc(Cl)cc1)c1ccc(OS(=O)(=O)C(F)(F)F)cc1)C(=O)NC1CC1 [Compound 1-43] | 90 | 100 | 100 | – | – | – | 33 | 67 | 100 | – |
| CN(C)C(=O)C(=O)N/N=C(/c1ccc(Cl)cc1)c1ccc(OS(=O)(=O)C(F)(F)F)cc1 [Compound 1-133] | 90 | 100 | 100 | – | – | – | 44 | 100 | 100 | – |
| C=CCNC(=O)C(=O)NN=C(c1ccc(Cl)cc1)c1ccc(OS(=O)(=O)C(F)(F)F)cc1 [Compound 1-27] | 70 | 100 | 100 | – | – | – | 80 | 100 | 100 | – |
| COC(=O)C(=O)N/N=C(/c1ccc(Cl)cc1)c1ccc(OS(C)(=O)=O)cc1 [Comparative compound C, reference compound] | – | 0 | 100 | – | – | – | – | – | – | – |
| CNC(=O)C(=O)NN=C(c1ccc(Cl)cc1)c1ccc(OS(=O)(=O)C(F)(F)F)cc1 [Compound 1-3, 4-[(4-chlorophenyl)-(methylaminoxalyl-hydrazono)-methyl]-phenyl trifluoromethanesulfonate] | 50 | 100 | 100 | 0 | 100 | 100 | 67 | 89 | 100 | – |
